The source of these data is US20070117835A1, “Methods and compositions for treating Huntington's disease” (priority 2005, published 2007).

Each structure is given as a SMILES string. “Also recorded” adds a separate entry of the source.

Data set [1] deals with transgenic Drosophila engineered to express the mutant huntingtin protein in all their neurons. The note with it: cited from earlier work.
The subject of data set [2] is wildtype Drosophila fruit flies. Put plainly: Toxicity of dimebon in wild type Drosophila (eclosion number and timing). Conditions: FIG. 1. It is filed as in vivo. As to the method: Dimebon was evaluated for toxicity levels in wildtype Drosophila fruit flies. Dimebon was administered daily at doses ranging from 10 μM to 1 mM to explore its toxicity. An untreated control group was also studied in this experiment. The concentrations given were concentrations of dimebon in the food that animals drink/eat ad libitum. The food consisted of cornmeal (61.2 g), dextrose (129.4. g), yeast (32.4 g) and agar (9.3 g) in 1 liter of water. Concentrated compounds were added to melted agar food cooled to just above the point of setting (about 40° C.), mixed and dispensed.
About 500 wild type Drosophila eggs were collected on grape juice plates for 20 hours, washed with distilled water and transferred 100 per vial to grow at 25 degrees C. The adult progeny were scored after eclosing (emerging from the pupal case) beginning 10 days later to assess developmental delay and toxicity. The criteria used for toxicity were the number (%) of animals that eclose and the time of the eclosing. For example, fewer animals may emerge from the pupal case if a drug is toxic or the same number of animals may eclose but more slowly than the untreated control group.
The toxicity test employed five concentrations (10 μM, 30 μM, 100 μM, 300 μM, 1 mM) plus an untreated control and was repeated with five sets of flies. […]

Data set [3] concerns transgenic Drosophila engineered to express the mutant huntingtin protein in all their neurons. Put plainly: Inhibition of mutant huntingtin-induced neurodegeneration of photoreceptor neurons (pseudopupil method). It is filed as in vivo. Conditions: for rescue of photoreceptor neurons compared to untreated controls: FIG. 2; for suppression of photoreceptor neuron degeneration, retest: FIG. 3. On the procedure:
Dimebon was administered to one group of transgenic Drosophila engineered to express the mutant huntingtin protein in all their neurons. This was accomplished by cloning a foreign gene into transposable p-element DNA vectors under control of a yeast upstream activator sequence that is activated by the yeast GAL4 transcription factor. These promoter fusions were injected into fly embryos to produce transgenic animals. The foreign gene is silent until crossed to another transgenic strain of flies expressing the GAL4 gene in a tissue specific manner. The Elav>Gal4 which expresses the transgene in all neurons from birth until death was used in the experiments described.
For compound testing, 20-30 Httex1pQ93 virgins were mated to elav>Gal4 males and eggs were collected for about 20 hours at 25° C. and dispensed into vials (expected about 70% lethality from Htt effects). Upon eclosion, at least 80, 0-8 hour old flies were harvested and place on drug-containing food (20 eclosed adults per vial) and scored when 7 days old. Inhibitor-containing food was prepared just before tester flies began to emerge.
The two types of transgenic animals were crossed in order to collect enough closely matched aged controls to study. The crossed aged-matched adults (about 20 per dosing group) were placed on drug-containing food for 7 days. Animals were transferred to fresh food daily to minimize any effects caused by instability of the compounds. Survival was scored daily. The average number of photoreceptors at day zero was determined by scoring 7-10 of the newly eclosed tester siblings within six hours of eclosing. This established the baseline of degeneration at the time of exposure to drug. At day 7, animals were sacrificed and the number of photoreceptor neurons surviving was counted. […] For pseudopupil analysis, flies were decapitated and the heads are mounted in a drop of nail polish on a microscopic slide. The head was then covered with immersion oil and light is projected through the eye of the fly using a Nikon EFD-3/Optiphot-2 compound microscope with a 50× oil objective.

The test system is the same in data set [4]. Put plainly: Climbing assay (motor function) in Drosophila model of Huntington's disease. It is filed as in vivo. On the procedure: The motor function of Drosophila obtained as described in the examples above was assessed by exploiting the strong negative geotropism of flies to climb upwards when they are tapped to the bottom of a vial. See, Le Bourg and Lint (1992) Hypergravity and aging in Drosophila melanogaster. 4. […] activity. Gerontology 38, 59-64. Animals were placed in a graduated vessel (e.g., a measuring cylinder). The distance climbed in 10 seconds was measured for each animal over 3 trials with a 5 minute rest period. In a separate experiment using tall thin plastic tubes rather than glass vials, the distance climbed in 30 seconds was also measured. Animals were scored for outcome without knowledge of treatment group. Flies were tested for functional rescue using a behavior assay (climbing assay) where the distance climbed was measured. […] In this assay, climbing was scored blind and each animal was given 3 trials that were then averaged. The climbing of 7 day old animals reared on 0, 10, 100 or 1,000 μM containing food was compared as was the climbing of animals on the day of eclosion. Two trials were performed. In the first, the ability to climb in large glass vials was monitored over 10 seconds. […] The second trial was similar to the first except that animals were tested in tall thin plastic tubes for climbing over 30 seconds. […] The data from the two independent climbing trials are plotted as individual data points in FIGS. 6A and 6B. A higher statistical power (e.g., 0.8) given the observed standard deviations and differences of the means may be achieved by doubling the size of the experiment for the highest concentration and increasing about 10 fold for the lower concentrations.

For the compound `C[C@@H](N)[C@H]1CC[C@H](C(=O)Nc2ccncc2)CC1` [Y-27632], in data set [1], the “rescue of photoreceptor neurons (historical positive control)” value is “strongly rescuing”.

`Cc1ccc2c(c1)c1c(n2CCc2ccc(C)nc2)CCN(C)C1.Cl.Cl` [dimebon, 2,8-dimethyl-5-(2-(6-methyl-3-pyridyl)-ethyl)-2,3,4,5-tetrahydro-1H-pyrido[4,3-b]indole dihydrochloride]: the “timing of emergence slowed” value in data set [2] (1 mM dose) is given as “approximately 1 day”. In addition, in data set [2] (10 to 300 μM in the food, below 1 mM, dihydrochloride), the “toxicity (number of animals that eclose and time of eclosing)” value is reported as “generally well tolerated; also recorded: no significant toxicity”. The “rescue of photoreceptor neurons compared to untreated controls” value is reported as “lesser but still apparent rescue of neurons” in data set [3] (10 μM, 7 days); “statistically significant (p=0.0014) rescue of neurons” in data set [3] (100 μM, 7 days on drug-containing food); “still appeared to cause neuronal rescue, but to a lesser extent than the 100 μM or 10 μM dimebon doses” in data set [3] (1 mM, 7 days). The “suppression of photoreceptor neuron degeneration, retest” value in data set [3] (100 μM vs zero drug controls, dihydrochloride) was “significant improvement; also recorded: significant rescue”; in data set [3] (higher doses (300 or 1,000 μM) vs zero drug controls) it was “no statistically demonstrable improvement”. In data set [3] (concentration in food), the “previously measured optimum concentration for photoreceptor rescue” value was determined as 100 µM. Further, the “protection of photoreceptors, dose dependence” value in data set [3] (day 7, pseudopupil scoring) is recorded as “protect photoreceptors in a dose-dependant manner”. Moreover, the “climbing behavior, distance climbed in 10 seconds” value in data set [4] (1 mM (1000 μM), 7 day old animals, glass vials, FIG. 5, dihydrochloride) was “significant difference between the control and 1000 μM; also recorded: statistically significant improvement in climbing”. The “raw climbing data, FIG. 6 panel A” value in data set [4] (1 mM vs D7ND (Day 7 no drug), legend says measured over 30 seconds) is “statistical difference between D7ND and 1 mM”. Besides, the “climbing behavior, distance climbed in 30 seconds” value in data set [4] (10, 100 or 1,000 μM, 7 day old animals, tall thin plastic tubes) is “no statistically demonstrable difference between treated and control groups”.
